Tests used:
[1] = tested on: passive cutaneous anaphylaxis (PCA); assay: Passive cutaneous anaphylaxis (PCA) in mice; assay type: in vivo, mouse
Protocol: Mouse ears were measured with a micrometer then sensitized with IgE in filter-sterilized PBS (Sigma, clone SPE-7, 20 ng/50 μl/ear) or vehicle control. Twenty-four hours later mice were treated with NKA (10 μg/ear, intradermal) or vehicle (PBS) 3 h prior to Ag (DNP-HSA 100 μg, in 200 μl, intravenous in saline) administration. Data are presented as change in ear thickness between baseline and the indicated time. […] Edema was evaluated histologically and as a function of Evans blue dye extravasation. For histological evaluation, mice were euthanized 2 h after PCA induction. Paraformaldehyde (4.0%) fixed ears were processed for hematoxylin and eosin staining. Pathology was blindly evaluated on an Axiostar plus microscope equipped with epifluorescence and a digital camera (AxioCam; Zeiss). For dye extravasation, Ag was delivered in 1.0% Evans blue dye. Ninety min later mice were euthanized, and ears were excised. Dye was extracted in DriSolv (EMD Millipore) and quantified as absorbance at OD 650 nm. Data are shown as OD650/mg of tissue. Cytokine expression in the skin was investigated 24 h after PCA induction. Mice were euthanized, ears excised, and tissue homogenized in T-PER (ThermoFisher) with Protease Inhibitor Cocktail (Sigma). Protein concentrations were quantified using the BCA Protein Assay (Pierce). The protein profile of skin homogenates was characterized with C-Series Mouse Cytokine Antibody Array C1 (RayBiotech). Densitometry values subtracting the median background from individual spot areas were calculated with ImageStudioLite v5.2.5. The densitometry value from each cytokine spot was divided by the mean densitometry of positive control spots to give relative protein expression. Data were from each experiment were normalized as (Relative Expression [Treated]/Relative expression [Vehicle]). In some experiments, ELISAs were performed on skin homogenates. Neutrophil influx was evaluated as a function of myeloperoxidase (MPO) activity. To detect MPO activity, tissue was homogenized with a Next Advance Bullet Homogenizer in 50 mM KPG4 with 50 mM […]. Homogenate was incubated with ODP (Sigma) with 0.005% H2O2 for 30 minutes. Enzymatic reactions were stopped with 1N HCl and absorbance was read at 450 nm.

PMCs [2] = assay: IgE+Ag-activated PMCs: cytokine release (ELISA); assay type: cell-based, murine; design: detectible levels of IL-10 / levels of IL-13: dose or concentration left out as unconfirmed
Protocol: Mast cells were differentiated from murine bone marrow as has been described. In brief, marrow was expunged from the femurs and tibias of female mice. Cultures were maintained in complete MC/9 medium containing recombinant murine IL-3 (25 ng/mL, Peprotech) for 4-6 weeks prior to use. Peritoneal MCs (PMCs) were expanded from peritoneal washes with MC/9 medium supplemented with IL-3 (25 ng/mL) and SCF (Peprotech, 10 ng/mL) for 21 days. Purity of BMMCs and PMCs was confirmed to be greater than 95% (FIG. 8A). To initiate signaling via the FcεRI, MCs were loaded with IgE (1.0 μg/ml, clone SPE-7, Sigma) for a minimum of 1 h then crosslinked with dinitrophenyl-human serum albumin (DNP-HSA, 100 ng/mL or as indicated). NKA (either LifeTein (Summerset, NJ) or Phoenix Pharmaceuticals (Burlingham, CA)) stock solutions were prepared in tissue culture grade water (100 μM) and stored at −20° C. for a maximum of 30 days. Glyburide (Cayman Chemical) was prepared in DMSO then diluted in PBS. Calpain activity was detected from cell-free supernatants using the Calpain-Glo Protease Assay (Promega). Supernatants were incubated with substrate for 10 min prior to luminescent detection. In some experiments, glyburide or vehicle (0.1% DMSO) were added to cells 10 min prior to Ag. ELISA kits from eBioscience (IL-13), BioLegend, (TNF and IL-10) or RayBiotech (NKA) and used in accord with the manufacturer's recommendations.

BMMCs = assay: Avidin / LAMP-1 surface staining of activated BMMCs; assay type: cell-based, murine; design: effect on LAMP-1^+ and avidin^+ BMMCs: dose or concentration left out as unconfirmed
Protocol: (§1) MCs were collected and washed with PBS containing 0.5% BSA and 0.1% sodium azide. Non-specific binding was inhibited using FcBlock (PBS with 2.0% goat serum and 0.25 mg/mL anti-CD16/32 (clone 2.4G2, BD Biosciences). Surface staining was done with anti-CD117 eFluor450 (clone 2B8, ThermoFisher), anti-FcεRI FITC (clone MAR-1, ThermoFisher) and anti-ABCA1 Alexa Fluor 647 (clone 5A1-1422, BioRad). Cells were washed with Wash Buffer (PBS with 0.5% BSA and 0.1% sodium azide). To detect differences in granulated proteins at the cell surface, IgE-loaded MCs were activated with DNP-HSA with or without NKA in Tyrode's Buffer for 30 min, washed with Wash Buffer then stained with Avidin Alexa Fluor488 (Invitrogen, Av488, 0.8 μg/5×10^5 cells) and anti-LAMP-1 PE (clone eBio 1D48, ThermoFisher). Data were acquired on either a LSRII or a Fortessa (BD BioSciences). Analysis was performed with FlowJo v10.4 (BD Biosciences).

PMCs [3] = assay: Avidin / LAMP-1 surface staining of activated PMCs; assay type: cell-based, murine; design: percentage of LAMP-1^+ and avidin^+ PMCs: dose or concentration left out as unconfirmed
Protocol: as §1

IL-10 = IL-10 degradation assays on BMMC supernatants; assay type: cell-based, murine
Protocol: To detect early IL-10 release, 4×10^6 cells were incubated in serum free RPMI for a minimum of three hours prior to IgE loading and activation with DNP-HSA (100 ng/mL). Supernatants were collected and IL-10 was detected in accord with manufacturer's recommendations using 1.0% BSA to block and a top standard of 250 pg/mL. The lower limit of detection was 7.8 pg/mL. To evaluate the role of relationship between calpain and IL-10, cell-free supernatants were collected 10 min after activation and incubated with Ac-calpastatin (Ac-Cal; 20 μg/mL, Cayman) or vehicle control. […] To directly test IL-10 proteolysis, MCs were activated for 45 min, cell free supernatants were collected and pulsed with recombinant IL-10 (Biolegend, 250 pg/mL).

[4] = 24 h after PCA induction, NKA pretreatment
[5] = 24 h after PCA induction, NKA pretreatment, listed as Neurokinin A
[6] = NKA 10 μg/ear intradermal 3 h prior to Ag
[7] = control Mcpt5Cre^+×IL10^WT PMCs

Molecule: COc1ccc(Cl)cc1C(=O)NCCc1ccc(S(=O)(=O)NC(=O)NC2CCCCC2)cc1 [glyburide, reference compound]
- ear thickness at 24 h ([1]; glyburide 2.5 mg/kg i.p. 3 h prior to PCA induction): significantly reduced
- levels of TNF (PMCs [2]; glyburide 50 mM, 20-24 h in culture): decreased
- detectible levels of IL-10 (PMCs [2]; glyburide, 20-24 h in culture): increased
- levels of IL-13 (PMCs [2]; glyburide, 20-24 h in culture): decreased
- effect on LAMP-1^+ and avidin^+ BMMCs (BMMCs; IgE-activated 30 minutes): less robust effect
- percentage of LAMP-1^+ and avidin^+ PMCs (PMCs [3]; IgE-activated 30 minutes): reduced the percentage
- IL-10 levels (IL-10; increasing concentrations of glyburide 10 min prior to activation, supernatants 30 min after activation): increasing

Molecule: Neurokinin A [NKA]
- IFNγ levels in skin (protein array) [1, 4]: not statistically significant, IFNγ levels increased
- IL-3 in IgE-treated skin (protein array) [1, 4]: significantly reduced
- IL-6 in IgE-treated skin (protein array) [1, 4]: significantly reduced
- IL-13 in IgE-treated skin (protein array) [1, 4]: down-regulated
- MCP1 in IgE-treated skin (protein array) [1, 4]: significantly reduced
- RANTES in IgE-treated skin (protein array) [1, 4]: significantly reduced
- TNF in IgE-treated skin (protein array) [1, 4]: down-regulated
- IL-13 in IgE-treated skin (protein array) [1, 5]: significantly reduced
- TNF in IgE-treated skin (protein array) [1, 5]: significantly reduced
- Evans blue dye extravasation ([1]; Mcpt5Cre^+×IL10/l mice): no effect
- Evans blue dye extravasation ([1]; Mcpt5Cre^+×IL10^WT mice): inhibited
- IL-13 in the skin by ELISA ([1]; Mcpt5 Cre^+×IL10^WT mice, 24 h): significantly downregulated
- TNF in the skin by ELISA ([1]; Mcpt5 Cre^+×IL10^WT mice, 24 h): significantly downregulated
- immune-regulatory capacity (ear measurements) at 2 h and 24 h after PCA induction ([1]; Mcpt5Cre^+×IL10^fl/fl mice): lost
- ear thickness, early (1-2 hours) phase of PCA [1, 6]: reduced ear thickness
- ear thickness, late phase of PCA (24 h) [1, 6]: reduced ear thickness
- Evans blue dye extravasation ([1]; NKA 10 μg/ear intradermal 3 h prior to Ag, 90 min after Ag): reduced Evans blue dye extravasation
- edema in histological sections, early phase of PCA ([1]; NKA 10 μg/ear intradermal 3 h prior to Ag, 2 h after PCA induction): a reduction in edema
- IL-10 protein in total skin homogenates ([1]; NKA pretreated mice): did not increase
- myeloperoxidase activity in skin homogenates, 24 h ([1]; NKA pretreatment): reduced myeloperoxidase activity
- neutrophil influx in histological sections, late phase (24 h) ([1]; NKA pretreatment): reduced neutrophil influx
- IL-13 in the skin ([1]; absence of MC-derived IL-10): increased
- TNF in the skin ([1]; absence of MC-derived IL-10): increased
- PCA, including degranulation-associated edema ([1]; overall statement): fully inhibited
- IL-13 release (PMCs [2]; [7]): inhibited
- TNF release (PMCs [2]; [7]): inhibited
- effects of NKA on IL-13 and TNF release (PMCs [2]; without PMC-derived IL-10 (Mcpt5Cre^+×IL10^fl/fl)): reversed
- avidin^+ granules and LAMP-1 on the cell surface (BMMCs; 30 min after activation, with or without NKA): equivalent amounts
- percentage of avidin^+ and LAMP-1V PMCs (PMCs [3]; 30 min after activation, compared to control): reduced the percentage
- early IL-10 in supernatants (IL-10; 60 min after activation with NKA): significantly more IL-10
- degradation of early IL-10 / pulsed rIL-10 by released proteases (IL-10; cell-free supernatants pulsed with rIL-10 for 30 min): disrupted

From patent US20240238228A1, “COMPOSITIONS AND METHODS FOR TREATING ALLERGIES AND INFLAMMATORY CONDITIONS” (UNIVERSITY OF PITTSBURGH-OF THE COMMONWEALTH SYSTEM OF …, priority 2021, published 2024)
